What all share (test): growth of human tumour cells (NCI), 48 h
Test [1] deals with SNB-75 CNS.
The subject of test [2] is MDA-MB-231 breast.
In test [3] the test system is MCF7 breast.
Test [4] has as its system CCRF-CEM leukemia.
Test [5] concerns SF-295 CNS.
Test [6] deals with UO-31 renal.
Test [7] has as its system IGROV1 ovarian.
Test [8] deals with U251 CNS.
In test [9] the test system is SK-MEL-28 melanoma.
For test [10], the system named is OVCAR-4 ovarian.

Several values for one entry are separate records, joined by “and”; a condition that tells them apart may be missing. Equal values may be shown once.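 Compound exposure: 48 hours, 5 concentrations, 96-well plates. GI50 = concentration required for 50% inhibition of growth. TGI denotes the concentration required for complete inhibition of growth.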

In the case of `CC1=C[C@H]2c3c(c(O)c(O)c4oc5c(C)cccc5c(=O)c34)[C@H](c3cc(O)c(O)c4oc5c(C)cccc5c(=O)c34)[C@H]2C(C)(C)C1`, the GI50 is 1400 nM in test [1]; 2880 nM in test [2]; 2000 nM in [3]; 650 nM in [4]; 1000 nM in test [5]; 1230 nM in test [6]. Further, the GI50 in test [7] is 1390 nM; in test [8], 1230 nM; in test [9], 1600 nM; in [10], 1510 nM. The TGI is 6.77 µM in test [1]; 14.6 µM in [2]; 6.3 µM in test [3]; 10.4 µM in test [4]; 2.84 µM in [5]; 2.78 µM in test [6]. The TGI in [7] was 5.69 µM; in test [8] it was 7.09 µM; in [9], 4.18 µM; in [10], 14.7 µM.

As for `COc1cc(NS(C)(=O)=O)ccc1Nc1c2ccc(Cl)cc2nc2c(OC)cccc12`, the GI50 in test [1] is 96.6 nM; in test [2] it was 3000 nM; in test [3], less than 16.1 nM; in [4], 30.9 nM; in test [5], 35.6 nM; in test [6], 46.6 nM. For the same compound, the GI50 in test [7] is 331 nM; in [8] it was 98.2 nM; in test [9], 1960 nM; in [10], 2320 nM. Also, the TGI in test [1] was 1.59 µM; in test [2], 15.6 µM; in test [3] it was 13.2 µM; in test [4] it was greater than 91.7 µM; in test [5], 1.11 µM; in test [6], 0.698 µM. Besides, the TGI in [7] stood at 6.89 µM; in test [8], 1.32 µM; in test [9], 18 µM; in test [10] it was 16.7 µM.

For `CC1=C(C(=O)Nc2ccc(F)c(Cl)c2)C(c2ccccc2Cl)NC(=S)N1` (stereo not given), the GI50 was 19600 nM in test [2]; 21700 nM in test [3]; greater than 50000 nM in [4]; 39800 nM in test [5]; 21300 nM in test [6]; 22800 nM in [7]. Also, the values for the GI50 in [8] and in test [9] were 25600 nM and greater than 50000 nM, respectively. The TGI in [2], in test [3], in test [4], in test [5], in test [6] and in [7] was greater than 50 µM throughout. Moreover, the TGI in [8] and in [9] was greater than 50 µM in each case.

For the compound `C=C1C(=O)O[C@H]2[C@H]1CC/C(COC(=O)CCCCC(=O)OC/C1=C/CC[C@@]3(C)O[C@H]3[C@H]3OC(=O)C(=C)[C@@H]3CC1)=C\CC[C@@]1(C)O[C@@H]21`, the GI50 is 20000 nM in test [1]; 1660 nM in test [2]; 429 nM in test [4]; 6320 nM in test [5]; 1410 nM in test [6]; 2580 nM in [8]. In addition, the GI50 was 2850 nM in test [9] and 3010 nM in [10]. Moreover, the TGI was greater than 100 µM in test [1]; 3.57 µM in test [2]; 4.25 µM in test [4]; greater than 100 µM in [5]; 4.57 µM in test [6]; 8.91 µM in [8]. In addition, the TGI in test [9] and in test [10] was greater than 100 µM in each case.

In the case of `O=c1cc(-c2cccc(C(F)(F)F)c2)[nH]c2cc3c(cc12)OCO3`, the TGI in test [2] was 30.1 µM; in [3], 50 µM and > 100 µM; in [7] it was 50 µM; in [9] it was 50 µM and 53.9 µM. The GI50 is 950 nM in test [3], 315 nM in test [6], 145 nM in [8] and 455 nM in test [9].

With `O=C(CN1CCN(c2ncnc3ccccc23)CC1)Nc1ccc(Cl)cc1C(=O)c1ccccc1Cl`, the GI50 in test [1] was 434 nM; in test [2], 387 nM; in [3], 636 nM; in [4], 791 nM; in test [5], 1110 nM; in test [6], 1870 nM. For the same compound, the figures for the GI50 in test [7], in test [9] and in test [10] were 1700 nM, 1030 nM and 1320 nM, respectively. For the same compound, the TGI was 1.48 µM in test [1]; 3.62 µM in [2]; 13.1 µM in test [3]; greater than 43.8 µM in [4]; 6.07 µM in [5]; 12.6 µM in [6]. The TGI in test [7] stood at 14.4 µM; in [9], 3.36 µM; in test [10], 9.36 µM.

Take `CCCCCCCCCCCCCC(=O)O[C@H]1CC[C@H](NC(=O)[C@H](OC)[C@H](O)[C@@H](O)[C@H](O)/C=C/C(C)C)C(=O)NC1`: the TGI in test [1] was 38.8 µM; in test [2] it was 13.5 µM; in test [3] it was 8.64 µM and 22.6 µM; in test [4] it was 8.44 µM and 10.7 µM; in test [6] it was 22 µM; in test [7], 8.51 µM and 2.71 µM. Besides, the TGI in test [8] is 18.6 µM and 11 µM; in test [9], 10.8 µM and 21.6 µM; in test [10], 29 µM and 31.3 µM. The GI50 was 6.38 nM in test [2], 5.12 nM in test [3], 8.83 nM in test [6] and 2.76 nM in test [10].

As to `N#C/C(=C\c1ccc(-c2ccc(Cl)cc2)o1)C(=O)Nc1ncc(Cc2ccc(Cl)cc2)s1`, the GI50 in test [1] is 1380 nM; in test [2], 1640 nM; in [3], 2510 nM; in test [4] it was 2210 nM; in [5], 2840 nM; in [6] it was 2480 nM. The GI50 was 2200 nM in test [7], 1090 nM in [8] and 422 nM in test [10]. Also, the TGI in test [1] was 3.89 µM; in test [2], 4.4 µM; in test [3] it was greater than 100 µM; in test [4], greater than 100 µM; in [5], 8.73 µM; in test [6] it was 7.87 µM. Also, the TGI in test [7] worked out at 5.99 µM; in test [8], 2.43 µM; in test [10] it was 2.01 µM.

Regarding `Oc1ccccc1-c1nn(CNc2cccc(Cl)c2)c(=S)o1`, the GI50 is 60200 nM in test [2]; 37900 nM in test [3]; 3630 nM in test [4]; greater than 100000 nM in [5]; greater than 100000 nM in test [6]; 81500 nM in test [7]. For the same compound, in test [8], the GI50 is 4910 nM. In addition, the TGI in [2] is greater than 100 µM; in [3] it was greater than 100 µM; in test [4], 27.3 µM; in [5], greater than 100 µM; in test [6] it was greater than 100 µM; in test [7], greater than 100 µM. Further, the TGI in [8] was found to be 39.6 µM.

As to `O=C1NN(c2ccc(C(=O)O)cc2)C(=O)/C1=C\c1ccc([N+](=O)[O-])o1`, the GI50 in [1] was greater than 100000 nM; in test [2], 58500 nM; in test [3] it was 22400 nM; in test [4], 22700 nM; in [5], greater than 100000 nM; in test [6] it was 59100 nM. Moreover, the results for the GI50 in test [7], in [8] and in test [9] were 20500 nM, 79900 nM and greater than 100000 nM, respectively. The TGI is greater than 100 µM in test [1]; greater than 100 µM in test [2]; 50.5 µM in [3]; 61.8 µM in test [4]; greater than 100 µM in [5]; greater than 100 µM in test [6]. Besides, the TGI in test [7] is 52.6 µM; in test [8], greater than 100 µM; in test [9], greater than 100 µM.

Regarding `Nc1nc(N)c(N=O)c(Nc2ccc(O)cc2)n1`, the TGI was greater than 67.7 µM in test [1]; greater than 100 µM in [2]; greater than 100 µM in test [4]; greater than 65.1 µM in test [5]; greater than 86.7 µM in test [6]; 44.8 µM in test [7]. For the same compound, the TGI in test [8], in [9] and in test [10] was greater than 100 µM each time.

In the case of `COc1cc2nc(-c3cnc(N(C)C)nc3)nc(NC3CCN(Cc4ccccc4)CC3)c2cc1OC`, the GI50 was 1430 nM in test [1]; 1570 nM in test [2]; 707 nM in test [4]; 1540 nM in test [5]; 1490 nM in test [6]; 1730 nM in test [7]. Besides, the GI50 in test [8] is 222 nM; in [9] it was 1830 nM. In addition, the TGI in test [1] stood at 2.86 µM; in test [2] it was 3.4 µM; in [4] it was 3.6 µM; in [5] it was 2.97 µM; in test [6] it was 3.05 µM; in test [7] it was 3.43 µM. The values for the TGI in test [8] and in test [9] were 0.573 µM and 3.58 µM, respectively.

For the compound `Cn1c2ccccc2c(=S)c2ccccc21`, the TGI in test [1], in [2], in [3], in test [4], in [5] and in test [6] was greater than 100 µM in each case. Further, the TGI in [7], in [8] and in test [9] was greater than 100 µM each time.

The record behind these values is PubChem BioAssay (NCI).
